Laboratory results published in US20030199424A1, “Method of treatment and/or prophylaxis” (priority 2002, published 2003).
“Also recorded” adds a separate entry of the source. Like-named read-outs stand apart in the source and are kept apart here.

What was measured:
[1] = test system: STZ-diabetic rats; experiment: Reversal protocol: AT1 antagonist from 12 wks post-STZ, morphine antinociception; settings: oral losartan 20 mg/kg/day for 4 wks commencing 12 wks post-STZ; tested at 16 wks post-STZ
Experimental: STZ-diabetic rats (n=18) were allocated to one of three experimental groups. Groups one and two received once-daily oral administration of antihypertensive doses of one of the AT1-antagonists, viz candesartan (2.0 mg/kg/day)or losartan (20 mg/kg/day), commencing at 12 weeks post-STZ administration (day 0). The third group (control STZ-diabetic rats) received no treatment.
(§1) The mean (±SEM) percentage maximum AUC (% Max AUC) was calculated according to the following formula: [formula]
The Mann-Whitney test was used to compare %MAX AUC values between treatment groups. The statistical significance criterion was p<0.05.

[2] = test system: non-diabetic rats; experiment: Opioid-mediated antinociception (Von Frey, % MPE) in non-diabetic control rats; type: in vivo, rat; settings: for ED50: Rattus norvegicus
Experimental: A second group of STZ-diabetic rats received vehicle (DMSO:water 10:90) by oral gavage (protocol-control rats). In the third group, weight-matched, naive, non-diabetic control rats (non-diabetic candesartan control rats) were also treated with candesartan for one wk prior to opioid antinociceptive testing to determine any intrinsic effects of candesartan on baseline pain scores and on opioid-mediated antinociception.
The statistical significance criterion was p<0.05.

[3] = test system: STZ-diabetic rats; experiment: Opioid-mediated antinociception (Von Frey, % MPE) in STZ-diabetic rats; settings: for ED50: Rattus norvegicus
Experimental: In all cases, opioids were administered by a single s.c. injection (100 μL) into the dorsal region at the base of the neck whilst under light CO2/O2 (50:50%) anaesthesia using a 250 μL Hamilton syringe. […] By contrast, the opioid-naïve, weight-matched, non-diabetic candesartan control rats were given high-dose oral candesartan (2 mg/kg/day) for 7 days before opioid testing was initiated.
Immediately prior to administration of s.c. bolus doses of either opioid, baseline paw withdrawal thresholds were quantified using VFFs in an identical manner to the weekly baseline Von Frey monitoring described above. Following s.c. opioid administration, VFF assessments were performed at the following post-dosing times: 15, 30, 45, 60, 90, 120 and 180 min.
The VFF scores for individual rats were converted to the Percentage of the Maximum Possible Antinociceptive Effect (% MPE), according the following formula (Brady & Holtzmann, 1982): [formula]
as §1
ED50 estimation was facilitated by inclusion of the theoretical maximum and minimum % Max AUC values. The Mann-Whitney test was used to compare %MPE AUC ED50 values between treatment groups. The statistical significance criterion was p<0.05.

[4] = molecular target: T1, CYP2D6 (Homo sapiens, UniProt P10635); settings: humans, CYP2D6-mediated; cited from earlier work
T1 construct: low extent of CYP2D6-mediated O-demethylation of oxycodone to oxymorphone in humans; host or cells: human subjects (in vivo metabolism)
T1 sequence (P10635 whole entry): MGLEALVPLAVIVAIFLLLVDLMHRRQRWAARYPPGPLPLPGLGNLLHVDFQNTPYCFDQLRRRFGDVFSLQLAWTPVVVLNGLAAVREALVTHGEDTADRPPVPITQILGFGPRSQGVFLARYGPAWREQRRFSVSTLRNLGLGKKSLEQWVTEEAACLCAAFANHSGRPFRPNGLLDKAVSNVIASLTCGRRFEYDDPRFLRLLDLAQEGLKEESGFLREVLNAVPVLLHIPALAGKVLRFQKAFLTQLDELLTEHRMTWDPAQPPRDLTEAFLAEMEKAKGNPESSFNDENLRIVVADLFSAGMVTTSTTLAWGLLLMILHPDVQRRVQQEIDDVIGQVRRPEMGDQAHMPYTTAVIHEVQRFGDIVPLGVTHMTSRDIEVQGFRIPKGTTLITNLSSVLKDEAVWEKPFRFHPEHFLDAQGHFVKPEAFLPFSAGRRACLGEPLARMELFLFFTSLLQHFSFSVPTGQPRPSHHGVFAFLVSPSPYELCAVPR

[5] = test system: STZ-diabetic rats; settings: s.c. oxycodone; STZ-diabetic rats over 24 wk study (Smith et al., 2001); cited from earlier work
[6] = oxycodone 2.0 mg/kg s.c., candesartan (0.5 mg/kg/day) treated STZ-diabetic rats, 12 wks post-STZ
[7] = oxycodone 2.0 mg/kg s.c., candesartan (0.5 mg/kg/day) treated STZ-diabetic rats, 21 wks post-STZ
[8] = oxycodone 2.0 mg/kg s.c., candesartan (0.5 mg/kg/day) treated STZ-diabetic rats, 24 wk post-STZ
[9] = oxycodone 2.0 mg/kg s.c., control STZ-diabetic rats, 9 wks post-STZ
[10] = oxycodone 2.0 mg/kg s.c., control STZ-diabetic rats, 12 wks post-STZ
[11] = oxycodone […] s.c., candesartan (0.5 mg/kg/day) treated STZ-diabetic rats, 3 wks post-STZ
[12] = oxycodone […] s.c., candesartan (0.5 mg/kg/day) treated STZ-diabetic rats, 9 wks post-STZ

Question: Which “Effect on morphine's antinociceptive effects (s.c. morphine 6.1 mg/kg)” value [1] does the source give for `CCCCc1nc(Cl)c(CO)n1Cc1ccc(-c2ccccc2-c2nnn[nH]2)cc1` [losartan] here?
Answer: preserved morphine's antinociceptive effects; also recorded: morphine sensitivity was preserved

Question: For `COc1ccc2c3c1O[C@H]1C(=O)CC[C@@]4(O)[C@@H](C2)N(C)CC[C@]314` [oxycodone], which ED50 ([2]; sc, control untreated non-diabetic rats, read-out: mean (±SEM) ED50 of s.c. oxycodone) is on record?
Answer: 1.2 mg/kg

Question: What about the ED50 ([2]; non-diabetic control rats on high-dose oral candesartan 2.0 mg/kg/day, read-out: ED50 of s.c. oxycodone) of the same molecule?
Answer: 1.1 mg/kg

Question: What about the “Mean (±SEM) % MPE AUC” value ([2]; oxycodone […] s.c., candesartan (2.0 mg/kg/day) treated non-diabetic rats) of the same molecule?
Answer: 155 (±8.5) % MPE.h

Question: And the ED50 ([3]; 504 h, read-out: mean (±SEM) ED50 of s.c. oxycodone)?
Answer: 1.4 mg/kg

Question: What about the ED50 ([3]; 1512 h, read-out: mean (±SEM) ED50 of s.c. oxycodone) of the same molecule?
Answer: 1.3 mg/kg

Question: And the ED50 ([3]; 4032 h, read-out: mean (±SEM) ED50 of s.c. oxycodone)?
Answer: 1.1 mg/kg

Question: And the ED50 ([3]; sc, 504 h, read-out: approximate ED50 oxycodone dose)?
Answer: ~1.5 mg/kg

Question: What about the ED50 ([3]; sc, 2016 h, read-out: approximate ED50 oxycodone dose) of the same molecule?
Answer: ~2 mg/kg

Question: What about the ED50 ([3]; sc, 4032 h, read-out: approximate ED50 oxycodone dose) of the same molecule?
Answer: ~3.2 mg/kg

Question: What about the “Mean (±SEM) % MPE AUC” value [3, 6] of the same molecule?
Answer: 116 (±8.2) % MPE.h

Question: And the “Mean (±SEM) dose normalised % MPE AUC” value [3, 6]?
Answer: 67.70 (±4.111) % MPE AUC.h.kg.mg^−1

Question: What about the “Mean (±SEM) % MPE AUC” value [3, 7] of the same molecule?
Answer: 171 (±8.3) % MPE.h

Question: What about the “Mean (±SEM) dose normalised % MPE AUC” value [3, 7] of the same molecule?
Answer: 85.34 (±4.134) % MPE AUC.h.kg.mg^−1

Question: What about the “Mean (±SEM) % MPE AUC” value [3, 8] of the same molecule?
Answer: 145 (±13.0) % MPE.h

Question: What about the “Mean (±SEM) dose normalised % MPE AUC” value [3, 8] of the same molecule?
Answer: 72.45 (±6.527) % MPE AUC.h.kg.mg^−1

Question: And the “Mean (±SEM) % MPE AUC” value [3, 9]?
Answer: 162 (±3.2) % MPE.h

Question: What about the “Mean (±SEM) dose normalised % MPE AUC” value [3, 9] of the same molecule?
Answer: 80.8 (±1.6) % MPE AUC.h.kg.mg^−1

Question: And the “Mean (±SEM) % MPE AUC” value [3, 10]?
Answer: 168 (±5.2) % MPE.h

Question: What about the “Mean (±SEM) dose normalised % MPE AUC” value [3, 10] of the same molecule?
Answer: 84.2 (±2.6) % MPE AUC.h.kg.mg^−1

Question: What about the “Mean (±SEM) % MPE AUC” value ([3]; oxycodone 2.2** mg/kg s.c., candesartan (2.0 mg/kg/day) treated STZ-diabetic rats, 12 wks post-STZ) of the same molecule?
Answer: 158 (±6.9) % MPE.h

Question: What about the “Mean (±SEM) % MPE AUC” value ([3]; oxycodone […] s.c., STZ-diabetic rats, 4 wks candesartan (2.0 mg/kg/day) re-initiation) of the same molecule?
Answer: 157 (±8.5) % MPE.h

Question: What about the “Mean (±SEM) % MPE AUC” value [3, 11] of the same molecule?
Answer: 131 (±7.9) % MPE.h

Question: And the “Mean (±SEM) dose normalised % MPE AUC” value [3, 11]?
Answer: 109.5 (±6.549) % MPE AUC.h.kg.mg^−1

Question: What about the “Mean (±SEM) % MPE AUC” value [3, 12] of the same molecule?
Answer: 122 (±9.1) % MPE.h

Question: And the “Mean (±SEM) dose normalised % MPE AUC” value [3, 12]?
Answer: 102.1 (±7.611) % MPE AUC.h.kg.mg^−1

Question: And the “decrease in antinociceptive response (%MPE AUC) versus non-diabetic protocol control rats” value ([3]; oxycodone […] s.c., candesartan (2.0 mg/kg/day) STZ-diabetic rats, 3 wks post-STZ)?
Answer: ≈ 20%

Question: And the “Mean (±SEM) % MPE AUC” value ([3]; oxycodone […] s.c., candesartan (2.0 mg/kg/day) treated STZ-diabetic rats, 3 wks post-STZ)?
Answer: 120 (±8.9) % MPE.h

Question: What about the “Mean (±SEM) % MPE AUC” value ([3]; oxycodone […] s.c., candesartan (2.0 mg/kg/day) treated STZ-diabetic rats, 9 wks post-STZ) of the same molecule?
Answer: 136 (±13.3) % MPE.h

Question: What about the “Mean (±SEM) dose normalised % MPE AUC” value ([3]; oxycodone […] s.c., control STZ-diabetic rats, 3 wks post-STZ) of the same molecule?
Answer: 115.5 (±3.1) % MPE AUC.h.kg.mg^−1

Question: And the “Mean (±SEM) dose normalised % MPE AUC” value ([3]; oxycodone […] s.c., control STZ-diabetic rats, 24 wks post-STZ)?
Answer: 44.1 (±2.4) % MPE AUC.h.kg.mg^−1

Question: And the “decrease in oxycodone potency versus non-diabetic protocol control rats” value ([3]; oxycodone […], candesartan (0.5 mg/kg/day) STZ-diabetic rats, 9 wks post-STZ)?
Answer: 20%

Question: And the “decrease in potency versus protocol controls” value ([3]; oxycodone, candesartan (0.5 mg/kg/day) STZ-diabetic rats, by 12 wks post-STZ)?
Answer: ~50%

Question: What about the “decrease in dose-normalised %MPE AUC versus protocol-control non-diabetic rats” value ([3]; oxycodone, low-dose candesartan (0.5 mg/kg/day) STZ-diabetic rats, 24 wks post-STZ) of the same molecule?
Answer: ~1.5 fold

Question: And the “fraction of each dose O-demethylated to oxymorphone” value [4]?
Answer: < 5%

Question: What about the “decrease in potency relative to non-diabetic control rats” value [5] of the same molecule?
Answer: 4 fold
